Tests used:
[1] = target: Fms kinase (Homo sapiens, UniProt P07333); test: Fms kinase biochemical activity assay (AlphaScreen, biotin-(E4Y)10 phosphorylation); conditions: 100 μM ATP; read-out: Biochemical Inhibition IC50 Fms
How it was run: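 AlphaScreen read-out (PY20 acceptor, streptavidin donor beads, EDTA stop) of biotin-(E4Y)10 phosphorylation, with IC50 taken from the concentration–signal curve. Reaction: 30 nM substrate, 100 μM ATP, 1 ng/well Fms, Hepes pH 7.5 with Mg2+/Mn2+, 5% DMSO, 20 min at 30 °C.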

[2] = Relative solubility by turbidity in aqueous buffers (pH 1.5, 4.5, 6.8, 7.4); type: physicochemical; conditions: for turbidity threshold (L, M, H) 1.4: pH 1.5 (SGF); for turbidity threshold (L, M, H) 4.5: pH 4.5 (SIF); for turbidity threshold (L, M, H) 6.8: pH 6.8 (SIF); for turbidity threshold (L, M, H) 7.4: pH 7.4 (HEPES)
How it was run: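 Reported value: concentration at which optical density at 490, 535 and 650 nm passes 0.01, taken as the mean of the three wavelengths. Buffers were 0.5M NaCl pH 1.5, 0.05M NaH2PO4 pH 4.5 or 6.8, and 10 mM HEPES/150 mM NaCl pH 7.4, each receiving serial 1:1 DMSO dilutions of a 25 mM stock.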

[3] = target: T1, CYP1A2 (Homo sapiens, UniProt P05177); test: CYP1A2 inhibition (fluorescent substrate CEC); type: in vitro ADME; conditions: read-out: Cyp IC50 1A2
T1 sequence (P05177 1-516): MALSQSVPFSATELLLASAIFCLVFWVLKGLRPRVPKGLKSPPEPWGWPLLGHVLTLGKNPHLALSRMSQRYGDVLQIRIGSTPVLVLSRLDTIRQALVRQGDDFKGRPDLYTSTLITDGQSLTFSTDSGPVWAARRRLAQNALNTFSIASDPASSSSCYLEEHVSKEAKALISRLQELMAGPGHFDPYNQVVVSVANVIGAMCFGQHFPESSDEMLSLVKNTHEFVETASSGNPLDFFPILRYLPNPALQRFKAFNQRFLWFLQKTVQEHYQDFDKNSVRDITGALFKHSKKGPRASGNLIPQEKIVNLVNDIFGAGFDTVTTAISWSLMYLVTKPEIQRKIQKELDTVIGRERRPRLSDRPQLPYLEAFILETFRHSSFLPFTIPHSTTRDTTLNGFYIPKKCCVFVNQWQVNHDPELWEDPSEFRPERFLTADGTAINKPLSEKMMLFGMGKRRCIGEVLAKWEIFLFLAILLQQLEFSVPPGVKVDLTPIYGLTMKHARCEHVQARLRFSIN
How it was run: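 Test compound titrated 1:1 across ten concentrations; metabolite fluorescence measured after 37 °C incubation of 15 min (CYP1A2), 30 min (CYP2C19, CYP2D6) or 45 min (CYP2C9). IC50 from signal versus concentration.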

Chain of Fms kinase (P07333 20-972): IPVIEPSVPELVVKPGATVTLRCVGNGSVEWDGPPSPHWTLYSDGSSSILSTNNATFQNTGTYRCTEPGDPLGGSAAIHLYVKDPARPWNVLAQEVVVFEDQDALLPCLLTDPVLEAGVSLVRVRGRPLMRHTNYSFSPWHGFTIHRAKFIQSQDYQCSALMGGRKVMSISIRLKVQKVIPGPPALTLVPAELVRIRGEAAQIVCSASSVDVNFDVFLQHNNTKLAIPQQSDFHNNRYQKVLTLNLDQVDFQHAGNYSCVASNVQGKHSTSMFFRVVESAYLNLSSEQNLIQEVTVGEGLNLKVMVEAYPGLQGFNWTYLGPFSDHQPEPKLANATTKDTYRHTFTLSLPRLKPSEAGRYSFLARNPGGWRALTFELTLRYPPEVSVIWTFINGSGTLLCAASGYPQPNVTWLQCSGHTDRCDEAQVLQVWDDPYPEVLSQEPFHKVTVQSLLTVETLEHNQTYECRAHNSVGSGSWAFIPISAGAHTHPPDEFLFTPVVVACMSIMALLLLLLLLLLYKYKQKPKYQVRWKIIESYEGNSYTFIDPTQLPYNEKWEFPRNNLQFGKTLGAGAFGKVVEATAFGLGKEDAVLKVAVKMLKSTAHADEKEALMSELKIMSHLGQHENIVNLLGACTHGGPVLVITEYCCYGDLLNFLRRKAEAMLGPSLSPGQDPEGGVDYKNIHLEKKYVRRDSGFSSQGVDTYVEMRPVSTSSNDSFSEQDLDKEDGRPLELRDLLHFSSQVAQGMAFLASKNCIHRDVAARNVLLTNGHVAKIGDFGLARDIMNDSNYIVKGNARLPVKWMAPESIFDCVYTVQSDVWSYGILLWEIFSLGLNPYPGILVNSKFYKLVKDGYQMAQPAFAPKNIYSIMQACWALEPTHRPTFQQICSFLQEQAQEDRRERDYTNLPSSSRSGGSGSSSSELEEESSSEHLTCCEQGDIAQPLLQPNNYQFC

Structure (SMILES) | IC50 [1] | turbidity threshold (L, M, H) 1.4 [2] | turbidity threshold (L, M, H) 4.5 [2] | turbidity threshold (L, M, H) 6.8 [2] | turbidity threshold (L, M, H) 7.4 [2] | IC50 [3]
CCc1ccc(Nc2ccc(C(=O)c3c[nH]c4ncnc(NC)c34)c(F)n2)cn1 [Compound P-4124, [6-[(6-ethyl-3-pyridyl)amino]-2-fluoro-3-pyridyl]-[4-(methylamino)-7H-pyrrolo[2,3-d]pyrimidin-5-yl]methanone] | < 10 nM | M (moderate solubility if the threshold concentration is 31.3 μM to 250 μM) | L (low solubility if the threshold concentration is <31.3 μM) | L (low solubility if the threshold concentration is <31.3 μM) | M (moderate solubility if the threshold concentration is 31.3 μM to 250 μM) | < 5000 nM
CCc1ccc(Nc2ccc(C(=O)c3c[nH]c4ncnc(NC5CC5)c34)c(F)n2)cn1 [Compound P-4125, [4-(cyclopropylamino)-7H-pyrrolo[2,3-d]pyrimidin-5-yl]-[6-[(6-ethyl-3-pyridyl)amino]-2-fluoro-3-pyridyl]methanone] | < 100 nM | H (high solubility if the threshold concentration is >250 μm) | L (low solubility if the threshold concentration is <31.3 μM) | L (low solubility if the threshold concentration is <31.3 μM) | L (low solubility if the threshold concentration is <31.3 μM) | > 10000 nM
Fc1cc(Cc2c[nH]c3ncnc(NC4CC4)c23)cnc1NC1CCC(F)(F)CC1 [Compound P-4127, N-cyclopropyl-5-[[6-[(4,4-difluorocyclohexyl)amino]-5-fluoro-3-pyridyl]methyl]-7H-pyrrolo[2,3-d]pyrimidin-4-amine] | < 100 nM | H (high solubility if the threshold concentration is >250 μm) | M (moderate solubility if the threshold concentration is 31.3 μM to 250 μM) | M (moderate solubility if the threshold concentration is 31.3 μM to 250 μM) | M (moderate solubility if the threshold concentration is 31.3 μM to 250 μM) | > 10000 nM

From US8901118B2, “Compounds and methods for kinase modulation, and indications therefor” (Plexxikon Inc., priority 2010, dated 2014)
